Columns and labels:
YTHDF1 (361-559) = target: T1, YTHDF1 (361-559) (Homo sapiens, UniProt Q9BYJ9); assay: Microscale thermophoresis (MST) assay; format: binding
T1 construct: GST (N, cleaved yes); made in house; host or cells: E. coli BL21 (DE3)
T1 sequence (Q9BYJ9 with tags, fused parts or gaps): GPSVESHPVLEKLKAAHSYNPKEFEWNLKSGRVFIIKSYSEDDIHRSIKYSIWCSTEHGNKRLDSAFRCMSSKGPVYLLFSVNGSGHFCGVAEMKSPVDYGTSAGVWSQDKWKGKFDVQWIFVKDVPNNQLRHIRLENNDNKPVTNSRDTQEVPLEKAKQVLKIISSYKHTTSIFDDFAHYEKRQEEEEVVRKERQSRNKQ
Description: Microscale Thermophoresis (MST) assay was performed on MiscroScale Thermophoresis instrument (NanoTemper Technologies) at room temperature using the label-free method. […] And the YTHDF1 (361-559) was diluted to 4 μM with MST buffer. […] Before measuring, the mixture was centrifuged at 13000 rpm for 10 minutes at 4° C. At last, the samples were collected by Monolith NT™ Automated Label Free capillaries (NanoTemper Technologies) and the measurement was started. […] Affinity Analysis Software v2.3 (NanoTemper Technologies).

YTHDF1 mutant H528A = target: T2, YTHDF1 mutant H528A (Homo sapiens, UniProt Q9BYJ9, H528A); assay: FP assay with YTHDF1 mutant H528A; format: binding
T2 construct: GST (N, cleaved yes); made in house; host or cells: E. coli BL21 (DE3)
T2 sequence (Q9BYJ9 with tags, fused parts or gaps H528A): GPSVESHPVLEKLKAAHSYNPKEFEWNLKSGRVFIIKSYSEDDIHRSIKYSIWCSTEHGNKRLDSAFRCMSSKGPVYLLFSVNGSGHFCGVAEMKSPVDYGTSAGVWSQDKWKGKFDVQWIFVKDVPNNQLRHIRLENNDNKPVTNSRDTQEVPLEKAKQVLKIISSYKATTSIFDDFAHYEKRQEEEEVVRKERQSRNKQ
Description: (§1) The protein YTHDF1 (361-559) (SEQ ID NO: 2) and its mutants (SEQ ID NOs: 4-13) were cloned into pGEx-6P-1 vector (obtained from YouBio Co, Ltd, Catalog NO: VT1258), and the His-YTHDF1 (361-559) (SEQ ID NO: 3) used in AlphaScreen Assay was cloned into modified pET28a vector (obtained from YouBio Co, Ltd, Catalog NO: VT1207). The vectors were transformed into E. coli BL21 (DE3) cells and cultured at 37° C. When OD value reached 0.6˜0.8, 1 mM Isopropyl-β-D-thiogalactopyranoside was added to overexpress the protein at 16° C. overnight. […] Then, the proteins were further purified via cation exchange (HiTrap SP, GE Healthcare) and finally through a Superdex 75 10/300 column (GE Healthcare). At last, the purified YTHDF1(361-559) and the mutants were kept in buffer which contains 20 mM Hepes (pH 7.4) and 200 mM NaCl. For His-YTHDF1 (361-559), the protein was purified via Ni-NTA chromatography (HisTrap FF, GE Healthcare), followed by cation exchange and Superdex 75 10/300 column in sequence. And the obtained protein was kept in the buffer with the same ingredients.
(§2) All of the YTHDF1 (361-559), the 5′-FAM labeled m^6A-containing mRNA (5′-FAM-[…] (m^6A) CUGUG-3′, SEQ ID NO: 14) and the candidate compounds were diluted with assay buffer (20 mM Hepes (pH 7.4), 50 mM NaCl, 0.01% (v/v) tween 20, 5% (v/v) glycerol). […] At last, the mixtures were measured by Envision Readers (PerkinElmer). […]

YTHDF1 mutant F382A = target: T3, YTHDF1 mutant F382A (Homo sapiens, UniProt Q9BYJ9, F382A); assay: FP assay with YTHDF1 mutant F382A; format: binding
T3 construct: GST (N, cleaved yes); made in house; host or cells: E. coli BL21 (DE3)
T3 sequence (Q9BYJ9 with tags, fused parts or gaps F382A): as the sequence (Q9BYJ9 with tags, fused parts or gaps H528A) above, with F24A, A170H counted along it
Description: as §1, §2

OT-I T cells = assay: CFSE-labeled OT-I T cell proliferation in vitro; format: cell-based, mouse; conditions: 5×10^5 CFSE-labeled OT-I T cells, various doses, 1 μg/mL OT-I peptide 24 hours
Description: 1×10^7 lymphocytes form lymph nodes of naïve OT-I mice were washed with PBS twice, then resuspend in 1 mL PBS. 1 μL CFSE Tracker was added into suspension and incubated in 37° C. for 5 min. Then 5 mL RPMI-1640 medium with 10% FBS was added to stop CFSE labelling, incubated at room temperature for 5 min. After centrifugation, CFSE-labeled T cells were suspended with another 5 mL RPMI-1640 medium at least for 10 min in room temperature.
In a further experiment, 5×10^5 CFSE-labeled OT-I T cells were treated with SAA of various doses in 96-well plates, then the cells were stimulated with 1 μg/mL OT-I peptide for 24 hours. Divided T cells were analyzed by FACS.

B16-OVA tumor = B16-OVA tumor growth in Rag1-/- versus wild-type mice; format: in vivo, mouse; conditions: 1×10^5 B16-OVA, 10 μM SAA day 7 to day 9
Description: For B6 mice tumor growth, 5×10^5 B16-OVA or 1×10^6 E.G7-OVA tumor cells were inoculated subcutaneously (s.c.) into the flank of mice. Tumor length (a) and width (b) was measured every two days and tumor volume was calculated by the formula ab^2/2. For the inhibitor treatment, 10 μM SAA or DMSO was injected intraperitoneally (i.p.) on day 9 and 11 after tumor inoculation. For other mice model (rag1^−/− and Ythdf1 conditional knockout), times and dose of inhibitor treatment was the same. For α-PD-L1 and SAA combination treatment, 5×10^5 B16-OVA tumor cells were inoculated subcutaneously into the flank of mice. 100 μg α-PD-L1 antibody (clone 10F.9G2) or rat immunoglobulin were administered at day 9 after tumor inoculation. 10 μM SAA or DMSO was administered in the same way on day 9 and 11 after tumor injection.
T/B cell-deficient Rag1^−/− mice were inoculated with 1×10^5 B16-OVA cells, and 10 μM SAA was then injected to each mouse from day 7 to day 9, and tumor growth was monitored, wild type mice were used as control group.

Q: How did the Kd (YTHDF1 (361-559)) turn out when `O=C(/C=C/c1ccc(O)c(O)c1/C=C/c1ccc(O)c(O)c1)O[C@H](Cc1ccc(O)c(O)c1)C(=O)O` [SAA, Salvianolic Acid A] was run?
A: 4.7 µM

Q: What about the “inhibitory activity against mutant binding to m6A versus wildtype” value (YTHDF1 mutant H528A) of the same compound?
A: significantly weaker than that against wildtype YTHDF1

Q: What about the “inhibitory activity against mutant binding to m6A versus wildtype” value (YTHDF1 mutant F382A) of the same compound?
A: significantly weaker than that against wildtype YTHDF1

Q: What about the T cell proliferation (OT-I T cells) of the same compound?
A: could not influence T cell proliferation

Q: And the tumor growth (B16-OVA tumor)?
A: tumor growth was arrested

— patent US20240033244A1, “COMPOSITIONS AND METHODS FOR INHIBITING YTHDF1” (SHANGHAI INSTITUTE OF MATERIA MEDICA, CHINESE ACADEMY OF …, priority 2020, published 2024)
